From patent US8637468B2, “Synthetic cholesterylamine-linker derivatives for agent delivery into cells” (The University of Kansas, priority 2009, dated 2014)
Read-outs that look alike come from different tables or passages of the source.

Experiments:
[1] = system: plasma membranes of living Jurkat lymphocytes; assay: Saturation binding of fluorescent probes to living Jurkat lymphocytes (flow cytometry); design: species or system human; conditions: for Bmax (×10^5, 16° C.) / Kd / Bmax (×10^5, 37° C.): media containing 10% FBS, free cholesterol (200 μM, 10% DMSO) as competitor; for binding to mammalian cells (affinity/efficacy, in words): high concentrations of serum (10%)
Procedure: Jurkat lymphocytes (human acute leukemia, ATCC #TIB-152) were cultivated in Roswell Park Memorial Institute (RPMI) 1640 medium supplemented with Fetal Bovine Serum (FBS, 10%), penicillin (100 units/mL), and streptomycin (100 μg/mL) in a humidified 5% CO2 incubator at 37° C. Media used for cell culture and all wash steps contained antibiotics and 10% FBS unless otherwise noted.
(§1) Cells were suspended at 300,000 cells/mL in RPMI media containing 10% FBS. Ezetimibe (100 μM; diluted 1:1000 into media from a 100 mM stock in DMSO; 0.1% final DMSO concentration), free cholesterol (200 μM; diluted 1:10 into media from a 2 mM stock in DMSO; 10% final DMSO concentration to enhance cholesterol solubility) or vehicle control (DMSO) was added in competition experiments. Cell suspensions containing the competitor or vehicle control were prepared as 1 mL aliquots in 1.5 mL eppindorf tubes. Fluorescent probes were added at concentrations from 0 nM to 2500 nM (diluted 1:1000 into media from stocks in DMSO). Once the probe was added and well mixed, the samples were split into three tubes each containing 330 μL. Cells were incubated at 16° C. for 10 min or 37° C. for 5 minutes to limit endocytosis. After this incubation, the samples were washed once with RPMI 1640 containing 0.5% FBS (to minimize efflux of the probe from the cell surface) and propidium iodide (3 μM). Samples were immediately analyzed by flow cytometry or confocal laser-scanning microscopy.
Populations of 10,000 Jurkat cells were analyzed for each sample using an Accuri C6 flow cytometer equipped with 488 nm and 640 nm solid-state lasers. Live cells were gated using both forward scattering (FSC) and side scattering (SSC) dot plots to identify cellular physical properties of size and granularity and propidium iodide to identify cells with compromised membranes. The average cellular fluorescence upon excitation at 488 nm was plotted against probe concentration, and the data analyzed as total binding (no competitor added) and a linear non-specific binding component (with cholesterol or ezetimibe as a specific competitor) to calculate specific binding curves. Using GraphPad Prism 5.0 software, these curves were analyzed with a one site with hill slope binding model to determine the relative apparent Kd and Bmax values listed in Table 1 below.
Using free cholesterol (compound 1, 200 μM, 10% DMSO) as a competitor, we quantified the relative affinities (Kd, app) and efficacies (Bmax) of compounds 4-12 in saturation binding experiments at both 16° C. (to limit endocytosis) and 37° C. (FIG. 4 and Table 1). These experiments confirmed the combined importance the N-alkyl substituent of cholesterylamine, an anionic functional group, and a spacer residue such as β-alanine to engender high affinity binding to cell surfaces and facilitate subsequent endocytosis.

Jurkat lymphocytes = assay: Confocal laser scanning microscopy of living Jurkat lymphocytes treated with fluorescent probes; format: cell-based, human; conditions: 2 μM, 10% serum
Procedure: FIG. 3 includes micrographs showing differential interference contrast (DIC) and confocal laser scanning microscopy of living Jurkat lymphocytes in media containing 10% serum treated at 37° C. with fluorescent compound 4 (Panels A-E), compound 6 (F-G), and compound 12 (H-I) for 5 min or 1 h (2 μM). In C and D, ezetimibe (compound 3, 100 μM in 0.1% DMSO) and cholesterol (compound 1, 200 μM in 10% DMSO) were included as competitors to block uptake via cell surface receptors.
An inverted Leica TCS SPE confocal laser-scanning microscope fitted with a Leica 63× oil-immersion objective was employed for imaging. Fluorescent probes were excited with a 488 nm solid-state laser and emitted photons were collected from 495-600 nm. Propidium iodide, used to counterstain dead cells red fluorescent, was excited with a 532 nm solid-state laser and emitted photons were collected from 650-800 nm. To image living cells, 50 μL of cells in media was pipetted to form a small droplet in the center of a coverslip fitted with a press-to-seal silicone isolator (Invitrogen). A microscope slide was added to the top of the coverslip to create a column of media containing living cells. To allow accurate comparisons of differences in cellular fluorescence, laser power and PMT gain settings were identical for all samples.
as §1, with “Once the probe was added and well mixed, the samples were split into three tubes each containing 330 μL. Cells were incubated at 16° C. for 10 min or 37° C. for 5 minutes to limit endocytosis. After this incubation, the samples were washed once with RPMI 1640 containing 0.5% FBS (to minimize efflux of the probe from the cell surface) and propidium iodide (3 μM).” left out

[2] = 16° C., 10 min, read-out: Kd, app (nM, 16° C.)
[3] = 37° C., 5 min, read-out: Kd, app (nM, 37° C.)

Compound	Bmax (×10^5, 16° C.) ([1]; 16° C., 10 min)	Kd [1, 2] [nM]	Bmax (×10^5, 37° C.) ([1]; 37° C., 5 min)	Kd [1, 3] [nM]	binding to mammalian cells (affinity/efficacy, in words) [1]	fluorescent staining of cells (Jurkat lymphocytes; 5 minutes at 37° C.)	cellular binding, uptake and localization (Jurkat lymphocytes; after 1 hour, 37° C.)	melting point [°C]	cellular binding and cellular uptake compared with compound 4 (Jurkat lymphocytes; 5 min or 1 h, 37° C.)
Cc1cc(C(=O)N[C@@H](CCC(=O)O)C(=O)NCCC(=O)NCCCN[C@H]2CC[C@@]3(C)C(=CC[C@H]4[C@@H]5CC[C@H]([C@H](C)CCCC(C)C)[C@@]5(C)CC[C@@H]43)C2)ccc1-c1c2cc(F)c(=O)cc-2oc2cc(O)c(F)cc12 [compound 4, (4S)-5-{[3-({3-[3β-Cholest-5-en-3-ylamino]propyl}amino)-3-oxopropyl]amino}-4-{[4-(2,7-difluoro-6-hydroxy-3-oxo-3H-xanthen-9-yl)-3-methylbenzoyl]amino}-5-oxopentanoic acid]	2.31 ± 0.14 ×10^5	403 ± 49	2.54 ± 0.12 ×10^5	344 ± 32	high affinity/efficacy	robust fluorescent staining of cellular plasma membranes	enhanced cellular binding, uptake of the probe, and localization of compound 4 in transferrin-positive early/recycling endosomes	–	–
Cc1cc(C(=O)N[C@@H](CCC(=O)O)C(=O)N[C@@H](CCC(=O)O)C(=O)NCCC(=O)NCCCN[C@H]2CC[C@@]3(C)C(=CC[C@H]4[C@@H]5CC[C@H]([C@H](C)CCCC(C)C)[C@@]5(C)CC[C@@H]43)C2)ccc1-c1c2cc(F)c(=O)cc-2oc2cc(O)c(F)cc12 [compound 5, (4S)-5-{[(1S)-3-Carboxy-1-({[3-({3-[3β-cholest-5-en-3-ylamino]propyl}amino)-3-oxopropyl]amino}carbonyl)propyl]amino}-4-{[4-(2,7-difluoro-6-hydroxy-3-oxo-3H-xanthen-9-yl)-3-methylbenzoyl]amino}-5-oxopentanoic acid]	3.93 ± 0.64 ×10^5	767 ± 244	3.01 ± 0.26 ×10^5	449 ± 74	high affinity/efficacy	–	–	–	–
Cc1cc(C(=O)NCC(=O)NCCC(=O)NCCCN[C@H]2CC[C@@]3(C)C(=CC[C@H]4[C@@H]5CC[C@H]([C@H](C)CCCC(C)C)[C@@]5(C)CC[C@@H]43)C2)ccc1-c1c2cc(F)c(=O)cc-2oc2cc(O)c(F)cc12 [compound 6, N-(2-{[3-({3-[3β-Cholest-5-en-3-ylamino]propyl}amino)-3-oxopropyl]amino}-2-oxoethyl)-4-(2,7-difluoro-6-hydroxy-3-oxo-3H-xanthen-9-yl)-3-methylbenzamide]	–	–	NC^b (Not calculated due to low efficacy (Bmax<0.4×105))	–	–	–	–	200 to 203	–
Cc1cc(C(=O)N[C@@H](CCC(=O)O)C(=O)N[C@@H](CCC(=O)O)C(=O)NCCCN[C@H]2CC[C@@]3(C)C(=CC[C@H]4[C@@H]5CC[C@H]([C@H](C)CCCC(C)C)[C@@]5(C)CC[C@@H]43)C2)ccc1-c1c2cc(F)c(=O)cc-2oc2cc(O)c(F)cc12 [compound 7, (4S)-5-(((2S)-4-carboxy-1-((3-[3β-cholest-5-en-3-ylamino]propyl)amino)-1-oxobutan-2-yl)amino)-4-(4-(2,7-difluoro-6-hydroxy-3-oxo-3H-xanthen-9-yl)-3-methylbenzamido)-5-oxopentanoic acid]	–	–	3.2 ± 1.3 ×10^5	1540 ± 1140	–	–	–	175 to 178	–
CC[C@H](CC[C@@H](C)[C@H]1CC[C@H]2[C@@H]3CC=C4C[C@@H](NCCCNC(=O)CCNC(=O)[C@H](CCC(=O)O)NC(=O)c5ccc(-c6c7cc(F)c(=O)cc-7oc7cc(O)c(F)cc67)c(C)c5)CC[C@]4(C)[C@H]3CC[C@]12C)C(C)C [compound 8, (4S)-5-{[3-({3-[3β-Sitost-5-en-3-ylamino]propyl}amino)-3-oxopropyl]amino}-4-{[4-(2,7-difluoro-6-hydroxy-3-oxo-3H-xanthen-9-yl)-3-methylbenzoyl]amino}-5-oxopentanoic acid]	0.73 ± 0.03 ×10^5	286 ± 27	1.3 ± 0.29 ×10^5	435 ± 221	–	–	–	–	–
Cc1cc(C(=O)N[C@@H](CCC(=O)O)C(=O)NCCC(=O)NCCCO[C@H]2CC[C@@]3(C)C(=CC[C@H]4[C@@H]5CC[C@H]([C@H](C)CCCC(C)C)[C@@]5(C)CC[C@@H]43)C2)ccc1-c1c2cc(F)c(=O)cc-2oc2cc(O)c(F)cc12 [compound 9, (4S)-5-{[3-({3-[3β-Cholest-5-en-3-yloxy]propyl}amino)-3-oxopropyl]amino}-4-{[4-(2,7-difluoro-6-hydroxy-3-oxo-3H-xanthen-9-yl)-3-methylbenzoyl]amino}-5-oxopentanoic acid]	1.68 ± 0.26 ×10^5	954 ± 285	–	–	–	–	–	192 to 194	–
Cc1cc(C(=O)N[C@@H](CCC(=O)O)C(=O)NCCC(=O)NCCC(=O)N[C@H]2CC[C@@]3(C)C(=CC[C@H]4[C@@H]5CC[C@H]([C@H](C)CCCC(C)C)[C@@]5(C)CC[C@@H]43)C2)ccc1-c1c2cc(F)c(=O)cc-2oc2cc(O)c(F)cc12 [compound 10, (4S)-4-(4-(2,7-difluoro-6-hydroxy-3-oxo-3H-xanthen-9-yl)-3-methylbenzamido)-5-((3-((3-{[3β-cholest-5-en-3-yl]amino}-3-oxopropyl)amino)-3-oxopropyl)amino)-5-oxopentanoic acid]	1.86 ± 0.39 ×10^5	786 ± 358	2.2 ± 0.30 ×10^5	639 ± 190	–	–	–	192 to 194	–
Cc1cc(C(=O)N[C@@H](CCC(=O)O)C(=O)NCCC(=O)NCCC(=O)OC2CC[C@@]3(C)C(=CC[C@H]4[C@@H]5CC[C@H]([C@H](C)CCCC(C)C)[C@@]5(C)CC[C@@H]43)C2)ccc1-c1c2cc(F)c(=O)cc-2oc2cc(O)c(F)cc12 (stereo partly drawn) [compound 11, (4S)-4-(4-(2,7-difluoro-6-hydroxy-3-oxo-3H-xanthen-9-yl)-3-methylbenzamido)-5-((3-((3-{[3-cholester-3-yl]oxy}3-oxopropyl)amino)-3-oxopropyl)amino)-5-oxopentanoic acid]	NC^b (Not calculated due to low efficacy (Bmax<0.4×105))	–	NC^b (Not calculated due to low efficacy (Bmax<0.4×105))	–	–	–	–	–	–
Cc1cc(C(=O)N[C@@H](CCC(=O)O)C(=O)NCC(=O)NCCNC(=O)OC2CC[C@@]3(C)C(=CC[C@H]4[C@@H]5CC[C@H]([C@H](C)CCCC(C)C)[C@@]5(C)CC[C@@H]43)C2)ccc1-c1c2cc(F)c(=O)cc-2oc2cc(O)c(F)cc12 (stereo partly drawn) [compound 12, (4S)-4-(4-(2,7-difluoro-6-hydroxy-3-oxo-3H-xanthen-9-yl)-3-methylbenzamido)-5-(3-((3-((({[3-cholester-3-y]oxy}carbonyl)amino)ethyl)amino)-2-oxoethyl)amino)-5-oxopentanoic acid]	NC^b (Not calculated due to low efficacy (Bmax<0.4×105))	–	NC^b (Not calculated due to low efficacy (Bmax<0.4×105))	–	–	–	–	–	substantially lower cellular binding and cellular uptake compared with compound 4
